{"source": "patent US20120157422A1", "about": "“MARKER” (UCL BUSINESS PLC, priority 2009, published 2012)", "key": {"high risk women": {"system": "high risk women", "conditions": "versus placebo; cited from earlier work"}, "[1]": {"system": "women at increased risk of preterm delivery", "assay": "PREMET subgroup providing saliva samples: metronidazole versus placebo", "type": "in vivo, human", "conditions": "17 women on metronidazole vs 7 on placebo (36.4 weeks), p=0.73, no significant difference", "excerpt": "A group of women at increased risk of preterm delivery participating in a study to assess the potential benefit of metronidazole in the prevention of preterm delivery (The PREMET study') provided saliva specimens from 24 weeks of gestation until 34 weeks or delivery in order to interrogate further the association between the steroid hormone profile and gestational age at delivery.\nIn the PREMET study 892 women with singleton pregnancies, who had at least one risk factor for preterm delivery, were recruited between 23^+0 and 24^+6 weeks over a four and a half year period.^1 Eligibility included singleton pregnancy with a history of preterm birth or preterm prelabour rupture of the membranes before 37 completed weeks of gestation, previous late miscarriage, uterine anatomical abnormality, cervical surgery prior to the index pregnancy or current cervical cerclage. Women were screened for cervico-vaginal fetal fibronectin (fFN) at 24 and 27 weeks gestation. Those who were fFN positive (≧50 ng/mL) were randomised to receive a one week course of metronidazole or placebo.\nWeekly saliva samples, provided from 24 weeks of gestation until 34 weeks or delivery, were analysed for saliva E3 and progesterone by radioimmunoassay as previously described.^3 Briefly, aliquots (100 μL) of saliva were mixed with 50 μL sodium carbonate solution pH 10.5 and extracted with 10 volumes of diethyl ether. […]"}, "[2]": {"system": "women at increased risk of preterm delivery", "conditions": "whole PREMET study, fFN positive women, one week course; cited from earlier work"}}}
{"smiles": "CCCCCC(=O)O[C@]1(C(C)=O)CC[C@H]2[C@@H]3CCC4=CC(=O)CC[C@]4(C)[C@H]3CC[C@@]21C", "note": "[17α hydroxyprogesterone caproate]", "values": [{"measurement": "benefit of the intervention", "setting": "high risk women", "value": "significant benefit"}]}
{"smiles": "Cc1ncc([N+](=O)[O-])n1CCO", "note": "[metronidazole]", "values": [{"measurement": "gestational age at delivery", "setting": "[1]", "value": 35.6, "unit": "weeks"}, {"measurement": "preterm delivery associated with treatment", "setting": "[2]", "value": "small but significant increase"}]}
